According to article PMC12127550 (The Journal of Biological Chemistry, 2025):
“Also recorded” adds a separate entry of the source. Like-named read-outs stand apart in the source and are kept apart here.

How the values were obtained:
OATP1B3 F555H = settings: F555H mutation; cited from earlier work
OATP1B1 H555F = settings: H555 F variant; cited from earlier work
OATP1B1 [1] = settings: cited from earlier work
OATP1B1 [2] = format: cell-based, human; settings: HEK293 over-expressing OATP1B1; substrate not specified at the place

For `O=C(O[C@@H]1Cc2c(O)cc(O)cc2O[C@@H]1c1cc(O)c(O)c(O)c1)c1cc(O)c(O)c(O)c1` [EGCG, epigallocatechin gallate], the “EGCG transport by OATP1B3” value (OATP1B3 F555H) is given as “significantly reduced”.

For “cholecystokinin-8: called an OATP1B1-specific substrate”, the “uptake by OATP1B1” value (OATP1B1 H555F) is given as “abolished”.

In the case of `C=CC1=C(C)/C(=C/c2[nH]c(Cc3[nH]c(/C=C4\NC(=O)C(C)=C4C=C)c(C)c3CCC(=O)O)c(CCC(=O)O)c2C)NC1=O` [bilirubin], the “inhibition of and transport by OATP1B1” value (OATP1B1 [1]; no reference given) is listed as “is a natural transport substrate, but does not inhibit transport”.

For `CO[C@H]1/C=C/O[C@@]2(C)Oc3c(C)c(O)c4c(O)c(c(/C=N/N5CCN(C)CC5)c(O)c4c3C2=O)NC(=O)/C(C)=C\C=C\[C@H](C)[C@H](O)[C@@H](C)[C@@H](O)[C@@H](C)[C@H](OC(C)=O)[C@@H]1C` [rifampicin], the “inhibition of and transport by OATP1B1” value (OATP1B1 [1]) is given as “both inhibits and is transported by OATP1B1”.

B1: Sb5: synthetic nanobody (sybody) that binds to OATP1B1 in both its apo and cyclosporine A-bound forms (antibody, V domains shown)
VH: QVQLVESGGGLVQAGGSLRLSCAASGFPVNLSYMHWYRQAPGKEREWVAAISSWGWHTEYADSVKGRFTISRDNAKNTVYLQMNSLKPEDTAVYYCHVRVGRSYFGQGTQVSVSA
For B1, the “inhibition of OATP1B1 substrate transport” value (OATP1B1 [2]) was “does not impair the ability of OATP1B1 to transport substrates; also recorded: did not inhibit substrate transport by OATP1B1”.
